Experimental data reported in patent US9492508B2, “Parathyroid hormone analogs and uses thereof” (The General Hospital Corporation, priority 2010, dated 2016).
Ends that are not written are not given here.

Key:
[1] = Hypercalcemic assay in cynomolgus monkeys (serum and urinary calcium and phosphate); assay type: in vivo, cynomolgus monkey; conditions: for serum calcium: 0.25 nmol/kg intravenous, FIG. 12A; for serum calcium, subcutaneous two doses: 2.5 or 10 nmol/kg subcutaneous, FIG. 15A
Protocol: The effects of the SP-PTH (SEQ ID NO:11) and SP-PTH-AAK (SEQ ID NO:4) (“SP-AAK”) on serum and urinary calcium and phosphate levels were tested in cynomolgus monkeys. Briefly, three- or four-year-old, male cynomolgus monkeys (HAMRI Co., Ltd., Ibaraki, Japan) were measured for their body weight. Blood was collected into tubes. Monkeys received intravenous or subcutaneous administration of each polypeptide at a dose of 0.3 ml/kg. Polypeptide concentrations in stock solution were adjusted by dilution with 25 mmol/L phosphate-citrate buffer/100 mmol/L NaCl/0.05% Tween 80 (pH.5.0) (PC-buffer). All polypeptides were allowed to stand on ice immediately before administration. Polypeptides were administered to groups of three monkeys each respectively. At 1, 2, 4, and 8 hours after administration, blood was collected by saphenous vein to monitor the time course of calcium and phosphorus levels (FIG. 11A).
Similar experiments were performed using subcutaneous injection of the polypeptides using two different doses (2.5 nmol/kg or 10 nmol/kg; FIG. 14). […] Reductions in serum inorganic phosphate were also observed (FIGS. 15B and 15C). […] Urine calcium and phosphate data were also collected. Urine was collected in 24-hour intervals prior to injection (T=0) and at times thereafter and assessed for Ca (FIGS. 15E and 15G), Pi (FIGS. 15F and 15H) and creatinine; [Ca] and [PI] are expressed as ratios to [creatinine]. FIGS. 15G and 15H present the change from the pre-injection values. Data are means±s.e.m.; n=3/group.

MC3T3-E1 cells = assay: cAMP response following ligand wash-out in MC3T3-E1 cells; assay type: cell-based, mouse; conditions: 100 nM ligand 5 min, then wash-out; FIGS. 7A, 7B
Protocol: Cells were treated at room temperature with vehicle or the indicated ligand (100 nM) for five minutes; for each ligand duplicate wells were used to obtain the initial (maximum cAMP values); in these wells, cells were co-incubated with ligand and IBMX. After five minutes of initial treatment, the buffer was removed, and, for the initial wells, the reactions were terminated by addition of 50 mM HCl. In the other wells, the cells were rinsed three times with buffer, and incubated in buffer for varying times, as indicated on the abscissa; after which the buffer was replaced by a buffer containing IBMX, and the cells were incubated for another five minutes. After that, the buffer was removed and the reactions were terminated by addition of 50 mM HCl. The cAMP contents of the HCl lysates were then determined by RIA.

human PTHR1 (R0) = target: T1, human PTHR1 (R0) (Homo sapiens, UniProt Q03431); assay: Competition binding, R0 conformation of human PTHR1 (COS-7 membranes, 125I-PTH(1-34) tracer, GTPγS); conditions: for R0 binding at human PTH receptor as compared to PTH(1-34): FIG. 5A
T1 construct: expressed in transfected cells; host or cells: COS-7 cells (membranes)
T1 sequence (Q03431 27-593): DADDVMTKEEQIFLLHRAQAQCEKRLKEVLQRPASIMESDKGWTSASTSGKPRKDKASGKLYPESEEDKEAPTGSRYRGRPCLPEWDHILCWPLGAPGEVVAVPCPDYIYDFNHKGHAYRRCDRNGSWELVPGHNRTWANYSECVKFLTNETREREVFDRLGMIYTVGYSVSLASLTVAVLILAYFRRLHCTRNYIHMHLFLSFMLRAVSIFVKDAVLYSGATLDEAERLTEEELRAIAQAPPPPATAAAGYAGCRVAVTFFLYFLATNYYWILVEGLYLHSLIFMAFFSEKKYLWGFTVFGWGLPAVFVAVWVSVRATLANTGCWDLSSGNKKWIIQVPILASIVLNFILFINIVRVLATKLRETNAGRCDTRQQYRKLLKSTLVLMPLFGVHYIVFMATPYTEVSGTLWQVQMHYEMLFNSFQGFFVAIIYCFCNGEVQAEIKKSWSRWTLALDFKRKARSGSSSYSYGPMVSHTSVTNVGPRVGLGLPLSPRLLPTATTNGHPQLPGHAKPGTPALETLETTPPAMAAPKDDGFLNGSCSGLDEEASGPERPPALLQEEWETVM
Protocol: (§1) Briefly, the R^0 form of the receptor can be favored by addition of the non-hydrolyzable nucleotide analog GTPγS. The RG form can be favored, for example, by co-transfection of cells with a negative dominant Gαs subunit. […] Data are means of four experiments, each performed in duplicate. Curves were fit to the data using Graph-Pad Prism 4.0.
Here, competition binding assays for the R^0 and RG PTHR1 conformation were performed in membranes prepared from transfected COS-7 cells, as described by Dean et al., Mol Endocrinol 22:156-66, 2008. Data are means of three experiments, each performed in duplicate. Curves were fit to the data using Graph-Pad Prism 4.0.

rat PTHR1 (R0) = target: T2, rat PTHR1 (R0) (Rattus norvegicus, UniProt P25961); assay: Competition binding, R0 conformation of rat PTHR1; conditions: for IC50: R0 conformation, mean of 4 experiments, read-out: Binding rat PTHR1 IC50 (Log M) R0 (converted)
T2 sequence (P25961 27-591): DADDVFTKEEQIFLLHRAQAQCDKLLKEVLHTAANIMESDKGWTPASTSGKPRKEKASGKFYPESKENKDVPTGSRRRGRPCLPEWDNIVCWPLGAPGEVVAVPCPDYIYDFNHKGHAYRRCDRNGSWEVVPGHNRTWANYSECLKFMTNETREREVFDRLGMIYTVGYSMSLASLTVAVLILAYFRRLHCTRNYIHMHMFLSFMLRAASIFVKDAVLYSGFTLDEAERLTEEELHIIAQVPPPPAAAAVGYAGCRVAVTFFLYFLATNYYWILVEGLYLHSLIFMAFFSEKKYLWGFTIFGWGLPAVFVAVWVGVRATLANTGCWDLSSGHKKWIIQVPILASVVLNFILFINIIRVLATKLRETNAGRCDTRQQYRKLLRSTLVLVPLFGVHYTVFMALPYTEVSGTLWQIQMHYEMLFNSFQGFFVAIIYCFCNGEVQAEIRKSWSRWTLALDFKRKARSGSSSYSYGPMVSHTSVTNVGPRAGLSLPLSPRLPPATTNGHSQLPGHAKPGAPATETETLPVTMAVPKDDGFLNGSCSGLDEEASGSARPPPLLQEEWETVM
Excerpt: as §1

[2] = Blood Ca++ responses in mice; assay type: in vivo, mice (C57 BL/6); conditions: 5 nmol/kg s.c., 4, 6, 8 and 24 hours
Protocol: Blood Ca^++ responses in mice were also assayed. Mice (C57 BL/6) were injected subcutaneously with either vehicle or the indicated ligand to give a final dose of 5 nmol/kg body weight, and blood was withdrawn via the tail at times after injection and assessed for Ca^++ concentration using a Bayer Rapid Lab model 348 blood analyzer. […] A similar experiment using 10 nmol/kg by intravenous injection was also conducted with similar results (FIGS. 8C and 8D).

| Substance | serum calcium [1] | serum calcium, subcutaneous two doses [1] | cAMP-stimulating activity after ligand wash-out (MC3T3-E1 cells) | R0 binding at human PTH receptor as compared to PTH(1-34) (human PTHR1 (R0)) | binding to R0 form of rat PTHR1, comparison in words (rat PTHR1 (R0); FIG. 1A) | stronger binding to the R0 form of the rat PTH receptor as compared to PTH(1-34) (rat PTHR1 (R0); FIG. 1A) | EC50 (rat PTHR1 (R0); FIG. 1A, read-out: log EC50, binding to the R0 form of the rat PTH receptor (converted)) [nM] | IC50 (rat PTHR1 (R0)) [nM] | blood calcium levels at later time points vs PTH(1-34) or vehicle [2] | IC50 (human PTHR1 (R0); R0 conformation, mean of 3 experiments, read-out: Binding human PTHR1 IC50 (Log M) R0 (converted)) [nM] |
| --- | --- | --- | --- | --- | --- | --- | --- | --- | --- | --- |
| AVAEIQLMHQRAKWIQDARRRAFLHKLIAEIHTAEI-OH [SP-PTH-AAK, [Ala^1,3,12,18,22,Gln^10,Arg^11,Trp^14,Lys^26]PTH(1-14)/PTHrP(15-36)] | increased serum calcium | increases in serum calcium were observed in a dose dependent manner | maintained cAMP-stimulating activity for longer periods of time than PTH(1-34) | enhanced R^0 binding | strongest binding | greater than two orders of magnitude increase in binding | 0.2 | 0.209 | increased | – |
| AVAEIQLMHQRAKWIQDLRRRFFLHHLIAEIHTAEI-OH [SP-PTH, [Ala^1,3,12,Gln^10,Arg^11,Trp^14]PTH(1-14)/PTHrP(15-36)] | increased serum calcium | increases in serum calcium were observed in a dose dependent manner | maintained cAMP-stimulating activity for longer periods of time than PTH(1-34) | enhanced R^0 binding | – | – | – | 1.45 | increased | 1.38 |
